Holding throughout (type): in vitro ADME
In one data set the target is P-gp (Homo sapiens, UniProt P08183). Briefly: Transporter inhibition.
The target of data set [1] is T1, CYP2C9 (Homo sapiens, UniProt P11712). Briefly: CYP enzyme inhibition.
In another data set the target is CYP2C19 (Homo sapiens, UniProt P33261). Kind of data set: CYP enzyme inhibition.
For data set [2], the target named is T2, breast cancer resistance protein (BCRP) (Homo sapiens, UniProt Q9UNQ0).
T2 sequence (Q9UNQ0 1-655): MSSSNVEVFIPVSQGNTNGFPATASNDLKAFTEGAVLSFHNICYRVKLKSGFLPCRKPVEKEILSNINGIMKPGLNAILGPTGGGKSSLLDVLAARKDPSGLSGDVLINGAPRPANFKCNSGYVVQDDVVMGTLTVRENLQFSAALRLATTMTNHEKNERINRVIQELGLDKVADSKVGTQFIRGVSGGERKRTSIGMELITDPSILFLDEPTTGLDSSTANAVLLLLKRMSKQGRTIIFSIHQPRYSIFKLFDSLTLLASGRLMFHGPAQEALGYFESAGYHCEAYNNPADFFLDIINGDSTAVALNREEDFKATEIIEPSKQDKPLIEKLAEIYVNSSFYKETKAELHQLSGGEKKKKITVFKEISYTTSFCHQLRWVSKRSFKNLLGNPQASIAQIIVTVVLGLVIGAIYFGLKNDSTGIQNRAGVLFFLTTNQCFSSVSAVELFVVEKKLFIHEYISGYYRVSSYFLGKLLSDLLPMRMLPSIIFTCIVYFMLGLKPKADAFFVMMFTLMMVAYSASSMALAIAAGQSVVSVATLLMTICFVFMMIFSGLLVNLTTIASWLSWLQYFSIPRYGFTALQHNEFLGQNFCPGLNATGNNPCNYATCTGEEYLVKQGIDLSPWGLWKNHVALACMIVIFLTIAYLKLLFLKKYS
Kind of data set: Transporter inhibition.

A further data set concerns the target CYP2C8 (Homo sapiens, UniProt P10632). Briefly: CYP-enzyme phenotyping using human liver microsomes and recombinant CYP enzymes. Also noted: CYP-enzyme phenotyping using human liver microsomes and recombinant CYP enzymes; from tissue; host or cells: human liver microsomes. On the technique in general: Liver microsomes are a subcellular fraction often used to study metabolism.

The target in data set [3] is T1, CYP2C9. Described as above. Also noted: CYP-enzyme phenotyping using human liver microsomes and recombinant CYP enzymes; from tissue; host or cells: human liver microsomes.
Another data set deals with T3, CYP1A2 (Homo sapiens, UniProt P05177).
T3 construct: CYP-enzyme phenotyping using human liver microsomes and recombinant CYP enzymes; from tissue; host or cells: human liver microsomes
Described as above.

The test system of the next data set is CYP3A4/5. Described as above.

T1 sequence (P11712 whole entry): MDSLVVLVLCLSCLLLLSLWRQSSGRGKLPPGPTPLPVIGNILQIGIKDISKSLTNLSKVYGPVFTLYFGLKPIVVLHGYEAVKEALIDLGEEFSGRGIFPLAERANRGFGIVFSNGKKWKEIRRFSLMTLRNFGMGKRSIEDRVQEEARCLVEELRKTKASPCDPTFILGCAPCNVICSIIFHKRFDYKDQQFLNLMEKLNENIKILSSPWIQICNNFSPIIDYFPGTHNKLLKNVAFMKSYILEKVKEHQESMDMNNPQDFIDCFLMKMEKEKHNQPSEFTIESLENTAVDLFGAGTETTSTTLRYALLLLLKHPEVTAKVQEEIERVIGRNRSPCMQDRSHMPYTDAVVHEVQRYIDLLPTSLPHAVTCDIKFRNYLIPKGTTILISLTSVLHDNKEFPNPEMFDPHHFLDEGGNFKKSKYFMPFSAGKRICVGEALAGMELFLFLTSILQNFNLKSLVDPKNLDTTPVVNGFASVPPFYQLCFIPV
T3 sequence (P05177 whole entry): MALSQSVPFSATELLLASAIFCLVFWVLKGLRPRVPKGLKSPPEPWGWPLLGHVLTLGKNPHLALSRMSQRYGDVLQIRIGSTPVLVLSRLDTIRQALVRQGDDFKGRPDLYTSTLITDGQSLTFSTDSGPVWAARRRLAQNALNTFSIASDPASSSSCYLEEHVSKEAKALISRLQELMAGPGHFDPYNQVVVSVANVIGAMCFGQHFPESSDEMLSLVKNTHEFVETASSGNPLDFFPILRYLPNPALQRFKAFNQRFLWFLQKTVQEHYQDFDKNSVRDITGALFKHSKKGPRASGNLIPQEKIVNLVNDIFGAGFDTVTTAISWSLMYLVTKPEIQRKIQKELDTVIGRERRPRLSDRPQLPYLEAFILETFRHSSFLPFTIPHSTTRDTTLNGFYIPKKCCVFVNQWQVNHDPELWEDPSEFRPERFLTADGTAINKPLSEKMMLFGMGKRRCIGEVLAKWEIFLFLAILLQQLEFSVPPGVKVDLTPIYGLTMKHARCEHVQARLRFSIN
Chain of P-gp (P08183 whole entry): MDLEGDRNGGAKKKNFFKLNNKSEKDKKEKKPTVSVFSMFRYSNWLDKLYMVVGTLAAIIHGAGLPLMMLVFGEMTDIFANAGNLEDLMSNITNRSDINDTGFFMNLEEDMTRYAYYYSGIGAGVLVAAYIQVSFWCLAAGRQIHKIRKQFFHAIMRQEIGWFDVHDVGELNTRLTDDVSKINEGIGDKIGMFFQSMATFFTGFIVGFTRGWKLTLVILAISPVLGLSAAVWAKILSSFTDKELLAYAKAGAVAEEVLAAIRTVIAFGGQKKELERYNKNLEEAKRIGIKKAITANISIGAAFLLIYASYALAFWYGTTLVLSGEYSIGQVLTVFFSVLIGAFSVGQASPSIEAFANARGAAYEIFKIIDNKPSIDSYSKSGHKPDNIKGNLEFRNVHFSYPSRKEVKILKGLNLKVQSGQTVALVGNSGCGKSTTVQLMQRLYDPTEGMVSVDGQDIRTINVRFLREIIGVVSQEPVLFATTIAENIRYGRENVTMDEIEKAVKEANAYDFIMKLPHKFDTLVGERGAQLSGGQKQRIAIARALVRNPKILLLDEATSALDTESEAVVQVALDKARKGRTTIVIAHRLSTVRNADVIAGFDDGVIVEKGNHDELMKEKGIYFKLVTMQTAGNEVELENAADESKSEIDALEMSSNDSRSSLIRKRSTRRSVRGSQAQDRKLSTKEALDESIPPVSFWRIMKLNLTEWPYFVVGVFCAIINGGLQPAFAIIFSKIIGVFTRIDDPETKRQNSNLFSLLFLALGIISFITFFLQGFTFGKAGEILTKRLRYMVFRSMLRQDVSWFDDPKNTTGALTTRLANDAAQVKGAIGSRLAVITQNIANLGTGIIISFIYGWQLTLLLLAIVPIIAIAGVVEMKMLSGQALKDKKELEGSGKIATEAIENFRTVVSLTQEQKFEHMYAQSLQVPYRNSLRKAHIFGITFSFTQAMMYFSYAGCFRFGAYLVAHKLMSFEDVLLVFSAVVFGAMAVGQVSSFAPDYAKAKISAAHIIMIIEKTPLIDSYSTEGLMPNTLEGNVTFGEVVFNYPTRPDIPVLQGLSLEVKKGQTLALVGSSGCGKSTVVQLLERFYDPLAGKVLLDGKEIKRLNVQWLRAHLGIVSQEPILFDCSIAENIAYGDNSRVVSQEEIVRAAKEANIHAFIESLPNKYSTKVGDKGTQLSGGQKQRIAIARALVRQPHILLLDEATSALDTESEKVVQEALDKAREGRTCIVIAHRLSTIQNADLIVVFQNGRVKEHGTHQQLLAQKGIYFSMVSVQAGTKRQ
Chain of CYP2C19 (P33261 whole entry): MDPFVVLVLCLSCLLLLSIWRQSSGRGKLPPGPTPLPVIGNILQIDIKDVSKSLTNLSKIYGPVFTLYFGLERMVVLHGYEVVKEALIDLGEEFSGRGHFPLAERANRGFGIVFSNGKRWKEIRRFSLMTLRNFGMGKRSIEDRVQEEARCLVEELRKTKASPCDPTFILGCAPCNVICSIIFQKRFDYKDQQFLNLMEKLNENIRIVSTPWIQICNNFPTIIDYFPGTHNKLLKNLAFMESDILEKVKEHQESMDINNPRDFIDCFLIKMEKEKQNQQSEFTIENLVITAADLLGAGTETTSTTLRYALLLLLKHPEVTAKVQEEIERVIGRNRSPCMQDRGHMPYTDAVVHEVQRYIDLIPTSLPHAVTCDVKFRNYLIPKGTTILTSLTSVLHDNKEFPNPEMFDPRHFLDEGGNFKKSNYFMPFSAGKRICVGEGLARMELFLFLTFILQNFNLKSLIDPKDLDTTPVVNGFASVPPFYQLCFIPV
Chain of CYP2C8 (P10632 whole entry): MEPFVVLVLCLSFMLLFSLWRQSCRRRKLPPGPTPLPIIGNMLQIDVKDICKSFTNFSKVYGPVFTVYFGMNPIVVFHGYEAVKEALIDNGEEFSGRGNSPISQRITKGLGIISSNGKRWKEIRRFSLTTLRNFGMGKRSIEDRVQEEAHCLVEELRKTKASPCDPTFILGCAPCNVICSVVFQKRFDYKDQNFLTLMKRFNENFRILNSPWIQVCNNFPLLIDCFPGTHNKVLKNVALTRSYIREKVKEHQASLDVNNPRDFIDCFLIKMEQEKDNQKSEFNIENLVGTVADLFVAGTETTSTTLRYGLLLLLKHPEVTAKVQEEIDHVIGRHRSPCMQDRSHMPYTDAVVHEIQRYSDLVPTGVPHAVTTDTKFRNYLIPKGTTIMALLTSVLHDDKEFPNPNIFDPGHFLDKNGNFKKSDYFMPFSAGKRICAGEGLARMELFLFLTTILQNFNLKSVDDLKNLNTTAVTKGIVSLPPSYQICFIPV

For `O=C(c1ccc(NS(=O)(=O)c2cccc3cccnc23)cc1)N1CCNCC1` [Metabolite], the “Inhibitor for P-gp” value at P-gp is on record as “not an inhibitor”. Also, at CYP2C9 [1], the “Inhibition of CYP2C9” value is “mild inhibitor”. Moreover, the “Inhibition of CYP2C19” value at CYP2C19 is recorded as “mild inhibitor”. In addition, the “Inhibitor for BCRP” value in data set [2] is recorded as “not an inhibitor”.

On to `O=C(c1ccc(NS(=O)(=O)c2cccc3cccnc23)cc1)N1CCN(CC2CC2)CC1` [Mitapivat, N-(4-(4-(cyclopropylmethyl)piperazine-1-carbonyl)phenyl)quinoline-8-sulfonamide], for which the “Contribution of CYP2C8 to metabolism” value on CYP2C8 is listed as “minor contributions”. Further, at CYP2C9 [3], the “Contribution of CYP2C9 to metabolism” value was “minor contributions”. For the same compound, the “Contribution of CYP1A2 to metabolism” value at CYP1A2 is reported as “minor contributions”. Besides, the “Share of metabolism by CYP3A4/5 (primarily metabolized by)” value with CYP3A4/5 is > 90%.

For the origin of these results see patent US11878049B1, “Mitapivat therapy and modulators of cytochrome P450” (Agios Pharmaceuticals, Inc., priority 2019, dated 2024).
